Measured values reported in the supplement of paper PMC11061612.

Tests used:
Assay in all cases: Bliss excess, mean over the matrix (fraction); higher = more synergy
[1] = tested on: 647-V (Bladder Carcinoma)
In short: (§1)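 Cell lines in DMEM/F12 or RPMI with 10% FBS were plated in 1536-well plates, held 24 hours at 37°C, 5% CO2, then given two-drug dose matrices for 72 hours (DMSO typically 0.2%). Viability was read by CellTiter-Glo 2.0 luminescence and scaled as inhibition from 0 (vehicle wells) to 1 (blank wells). Combination Emax is the second-highest inhibition in the matrix; Bliss excess is observed combination effect minus expected EA + EB − EA·EB, EA and EB being single-agent effects.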

[2] = tested on: A172 (Glioblastoma)
In short: as §1

[3] = tested on: BICR78 (Oral Cavity Carcinoma)
In short: as §1

[4] = tested on: CS1 (Chondrosarcoma)
In short: as §1

[5] = tested on: EFM-192A (Breast Carcinoma)
In short: as §1

[6] = tested on: H4 (Low Grade Glioma)
In short: as §1

[7] = tested on: HCC-827 (Lung Adenocarcinoma)
In short: as §1

[8] = tested on: HCT-116 (Colorectal Carcinoma)
In short: as §1

[9] = tested on: HOP-92 (Non-Small Cell Lung Carcinoma)
In short: as §1

[10] = tested on: JHH-6 (Hepatocellular Carcinoma)
In short: as §1

[11] = tested on: MEG-01 (Chronic Myelogenous Leukemia)
In short: as §1

[12] = tested on: MSTO-211H (Mesothelioma)
In short: as §1

[13] = tested on: P31-FUJ (Acute Myeloid Leukemia)
In short: as §1

[14] = tested on: SK-UT-1 (Other Solid Carcinomas)
In short: as §1

[15] = tested on: SLVL (B-Cell Non-Hodgkin's Lymphoma)
In short: as §1

[16] = tested on: SNG-M (Endometrial Carcinoma)
In short: as §1

[17] = tested on: TYK-nu (Ovarian Carcinoma)
In short: as §1

[18] = tested on: WSU-DLCL2 (B-Cell Non-Hodgkin's Lymphoma)
In short: as §1

[19] = tested on: SNU-61 (Colorectal Carcinoma)
In short: as §1

SMILES	Bliss excess [1]	Bliss excess [2]	Bliss excess [3]	Bliss excess [4]	Bliss excess [5]	Bliss excess [6]	Bliss excess [7]	Bliss excess [8]	Bliss excess [9]	Bliss excess [10]	Bliss excess [11]	Bliss excess [12]	Bliss excess [13]	Bliss excess [14]	Bliss excess [15]	Bliss excess [16]	Bliss excess [17]	Bliss excess [18]	Bliss excess [19]
CN(C)CCCOc1ccc(-c2ccc3ncc4c(c3c2)n(C2CCOCC2)c(=O)n4C)cn1 [AZD0156] + O=C(c1cc(Cc2n[nH]c(=O)c3ccccc23)ccc1F)N1CCN(C(=O)C2CC2)CC1 [Olaparib] (first compound max 3 µM, partner max 3 µM)	0.0562	0.0378	-0.0507	0.0148	-0.0026	0.179	-0.0328	0.129	0.0111	-0.019	0.0239	-0.0685	0.0759	0.0429	0.0638	-0.0267	0.0468	0.211	–
C=CCn1c(=O)c2cnc(Nc3ccc(N4CCN(C)CC4)cc3)nc2n1-c1cccc(C(C)(C)O)n1 [AZD1775] + C1CN(CCC1(C(=O)N[C@@H](CCO)C2=CC=C(C=C2)Cl)N)C3=NC=NC4=C3C=CN4 [Capivasertib] (first compound max 3 µM, partner max 3 µM)	0.0493	-0.0099	-0.0822	-0.0394	-0.0004	-0.0472	0.0073	0.0051	0.0152	-0.0294	–	-0.0797	-0.0276	-0.0037	–	-0.0575	-0.0475	-0.0709	–
COc1nnc2ccc(N3CCC(c4ccc(OCCN5CCN(C)C(=O)[C@H]5C)cc4)CC3)nn12 [AZD5153] + C=CCn1c(=O)c2cnc(Nc3ccc(N4CCN(C)CC4)cc3)nc2n1-c1cccc(C(C)(C)O)n1 [AZD1775] (first compound max 1 µM, partner max 1 µM)	-0.0448	-0.0521	-0.0302	-0.0172	-0.0138	-0.0056	0.0237	-0.0367	-0.0301	-0.048	-0.0693	-0.121	-0.0392	-0.0323	-0.142	0.0898	-0.04	-0.0085	-0.0041
COc1nnc2ccc(N3CCC(c4ccc(OCCN5CCN(C)C(=O)[C@H]5C)cc4)CC3)nn12 [AZD5153] + CC1(C)CCC(CN2CCN(c3ccc(C(=O)NS(=O)(=O)c4ccc(NCC5CCOCC5)c([N+](=O)[O-])c4)c(Oc4cnc5[nH]ccc5c4)c3)CC2)=C(c2ccc(Cl)cc2)C1 [Venetoclax] (first compound max 1 µM, 7x7, partner max 1 µM)	-0.0455	-0.0363	-0.0468	-0.054	-0.0257	0.033	-0.0498	-0.0614	-0.0242	-0.0443	-0.0627	-0.111	-0.0447	-0.0459	-0.0277	-0.0875	-0.0887	0.0805	-0.0374
COc1nnc2ccc(N3CCC(c4ccc(OCCN5CCN(C)C(=O)[C@H]5C)cc4)CC3)nn12 [AZD5153] + CCN(CCO)CCCOc1ccc2c(Nc3cc(CC(=O)Nc4cccc(F)c4)[nH]n3)ncnc2c1 [AZD2811] (first compound max 1 µM, 7x7, partner max 1 µM)	0.0236	-0.0466	-0.0537	-0.0284	-0.0154	-0.0269	-0.0513	-0.0384	-0.079	-0.0683	-0.047	-0.0182	-0.0293	-0.0144	-0.151	-0.0158	-0.0658	-0.019	-0.0074
COc1nnc2ccc(N3CCC(c4ccc(OCCN5CCN(C)C(=O)[C@H]5C)cc4)CC3)nn12 [AZD5153] + C[C@@H]1COCCN1C2=NC(=NC(=C2)C3(CC3)[S@](=N)(=O)C)C4=C5C=CNC5=NC=C4 [AZD6738] (first compound max 1 µM, 7x7, partner max 10 µM)	0.029	-0.0059	0.0056	-0.0559	0.0551	-0.0081	0.08	-0.0049	0.0246	-0.0111	-0.0595	-0.0354	-0.0685	0.0401	-0.13	-0.0014	-0.0386	-0.0467	0.0459
COc1nnc2ccc(N3CCC(c4ccc(OCCN5CCN(C)C(=O)[C@H]5C)cc4)CC3)nn12 [AZD5153] + Cc1c2c(nn1C)CSCc1cc(n(C)n1)CSc1cc(c3ccccc3c1)OCCCc1c(C(=O)O)n(C)c3c-2c(Cl)ccc13 [AZD5991] (first compound max 1 µM, 7x7, partner max 1 µM)	-0.0135	-0.0698	-0.027	-0.0342	-0.0467	-0.0287	-0.0225	-0.0049	-0.001	-0.0727	-0.0104	0.0307	-0.0869	-0.0031	-0.119	-0.0033	-0.0363	0.0182	-0.0178
COc1nnc2ccc(N3CCC(c4ccc(OCCN5CCN(C)C(=O)[C@H]5C)cc4)CC3)nn12 [AZD5153] + Cn1cnc2c(F)c(Nc3ccc(Br)cc3Cl)c(C(=O)NOCCO)cc21 [Selumetinib] (first compound max 1 µM, 7x7, partner max 10 µM)	0.0604	-0.0304	-0.0454	0.01	-0.0096	-0.0184	-0.0543	-0.029	0.0604	0.0053	-0.0222	0.007	0.0339	0.0089	-0.0385	0.0042	-0.044	-0.0365	0.0407
NC1(C(=O)N[C@@H](CCO)c2ccc(Cl)cc2)CCN(c2ncnc3[nH]ccc23)CC1 [Capivasertib] + CC(=O)c1c(C)c2cnc(Nc3ccc(N4CCNCC4)cn3)nc2n(C2CCCC2)c1=O [Palbociclib] (first compound max 10 µM, 7x7, partner max 10 µM)	0.0129	-0.0183	-0.0093	0.016	-0.0334	0.0014	-0.034	0.01	0.0322	-0.0503	-0.0355	-0.0547	-0.0807	-0.0009	-0.024	-0.0601	-0.0208	0.0205	-0.0289
NC1(C(=O)N[C@@H](CCO)c2ccc(Cl)cc2)CCN(c2ncnc3[nH]ccc23)CC1 [Capivasertib] + CC(C)n1c(=O)n(C)c2cnc3cc(F)c(-c4ccc(OCCCN5CCCCC5)nc4)cc3c21 [AZD1390] (first compound max 10 µM, 7x7, partner max 0.3 µM)	-0.04	-0.0965	-0.0552	-0.0698	-0.062	-0.0638	-0.0793	-0.0263	-0.0238	-0.0908	-0.0245	-0.0905	-0.169	-0.0017	-0.0671	-0.0484	-0.116	0.0106	-0.064
NC1(C(=O)N[C@@H](CCO)c2ccc(Cl)cc2)CCN(c2ncnc3[nH]ccc23)CC1 [Capivasertib] + CCN(CCO)CCCOc1ccc2c(Nc3cc(CC(=O)Nc4cccc(F)c4)[nH]n3)ncnc2c1 [AZD2811] (first compound max 10 µM, 7x7, partner max 1 µM)	-0.0332	-0.0079	-0.0092	-0.0211	-0.0053	-0.0124	-0.0428	0.0513	-0.0285	-0.0301	-0.0484	-0.0073	-0.0663	0.0666	-0.0608	-0.012	-0.0351	0.0415	-0.0435
NC1(C(=O)N[C@@H](CCO)c2ccc(Cl)cc2)CCN(c2ncnc3[nH]ccc23)CC1 [Capivasertib] + COc1nnc2ccc(N3CCC(c4ccc(OCCN5CCN(C)C(=O)[C@H]5C)cc4)CC3)nn12 [AZD5153] (first compound max 10 µM, 7x7, partner max 1 µM)	-0.0536	0.0178	0.0135	0.0057	0.0866	-0.0057	0.0472	0.0331	-0.0027	-0.0365	-0.0355	0.0056	0.0066	0.0637	-0.102	0.0787	0.0114	-0.0546	-0.01
NC1(C(=O)N[C@@H](CCO)c2ccc(Cl)cc2)CCN(c2ncnc3[nH]ccc23)CC1 [Capivasertib] + C[C@@H]1COCCN1C2=NC(=NC(=C2)C3(CC3)[S@](=N)(=O)C)C4=C5C=CNC5=NC=C4 [AZD6738] (first compound max 10 µM, 7x7, partner max 10 µM)	-0.0386	-0.0106	0.0163	-0.0517	-0.0546	-0.0667	-0.0421	-0.0432	-0.0518	-0.0229	-0.0464	-0.0088	-0.145	-0.0983	-0.0936	-0.0984	-0.109	-0.0088	-0.0316
CS(=O)(=O)CCNCc1ccc(-c2ccc3ncnc(Nc4ccc(OCc5cccc(F)c5)c(Cl)c4)c3c2)o1 [Lapatinib] + Cn1cnc2c(F)c(Nc3ccc(Br)cc3Cl)c(C(=O)NOCCO)cc21 [Selumetinib] (first compound max 10 µM, 7x7, partner max 10 µM)	–	–	-0.0343	-0.0337	–	-0.0159	–	-0.0864	–	–	-0.0206	-0.0401	-0.0118	0.0151	0.0683	-0.071	–	0.0044	–
CS(=O)(=O)CCNCc1ccc(-c2ccc3ncnc(Nc4ccc(OCc5cccc(F)c5)c(Cl)c4)c3c2)o1 [Lapatinib] + NC1(c2ccc(-c3nc4ccn5c(=O)[nH]nc5c4cc3-c3ccccc3)cc2)CCC1 [MK-2206] (first compound max 10 µM, 7x7, partner max 10 µM)	–	–	0.0068	-0.0142	–	0.0054	–	-0.0347	0.0328	–	0.0128	-0.0466	-0.062	0.0057	0.0539	0.0254	-0.0165	0.0058	–
Cc1nc(-c2cn3c(n2)-c2ccc(-c4cnn(C(C)(C)C(N)=O)c4)cc2OCC3)n(C(C)C)n1 [Taselisib] + O=C(Nc1ccc2[nH]nc(-c3ccncc3)c2c1)[C@@H]1CCN(CC(=O)N2CCN(c3ccc(-c4ncccn4)cc3)CC2)C1 [SCH772984] (first compound max 10 µM, 7x7, partner max 5 µM)	–	–	-0.011	0.0942	–	-0.0007	–	0.138	–	–	0.0128	0.131	0.0477	0.104	0.0524	-0.0211	–	0.0062	–
